Experimental data as given in US12723063B2, “GIPR-agonist compounds” (Eli Lilly and Company, priority 2019, dated 2026).
*1 amine or outer side, *2 acyl side, *3 side chain or, on linkers, in order; H or OH if unused. Where a SMILES comes first, the peptide text is derived from it. Side-chain parts run from the residue outwards. [ ]: non-standard residue; d: D form. The star is where a group is joined. C20 diacid = O=C(O)CCCCCCCCCCCCCCCCCCC(=O)*; C18 diacid = O=C(O)CCCCCCCCCCCCCCCCC(=O)*; γGlu = O=C(O)[C@H](CCC(=O)[*:2])N[*:1]; αMeF = C[C@](N)(Cc1ccccc1)C(=O)O; 4Pal = N[C@@H](Cc1ccncc1)C(=O)O; αMeL = CC(C)C[C@](C)(N)C(=O)O; AEEA = NCCOCCOCC(=O)O; Aib = CC(C)(N)C(=O)O

Key:
Test in all cases: cAMP functional assay (HTRF) in HEK293 cells in presence of 0.1% casein
Format in all cases: cell-based
[1] = molecular target: T1, human glucagon receptor (GcgR) (Homo sapiens, UniProt P47871); details: HEK293 cells expressing human GcgR, geometric mean, read-out: hGcgR cAMP Rel EC50 nM (SEM, n)
T1 construct: expressed in transfected cells; host or cells: HEK293

[2] = molecular target: T2, human glucose-dependent insulinotropic peptide receptor (GIPR) (Homo sapiens, UniProt P48546); details: HEK293 cells expressing human GIPR, geometric mean, read-out: hGIPR cAMP Rel EC50 nM (SEM, n)
T2 construct: expressed in transfected cells; host or cells: HEK293
T2 sequence (P48546 22-466): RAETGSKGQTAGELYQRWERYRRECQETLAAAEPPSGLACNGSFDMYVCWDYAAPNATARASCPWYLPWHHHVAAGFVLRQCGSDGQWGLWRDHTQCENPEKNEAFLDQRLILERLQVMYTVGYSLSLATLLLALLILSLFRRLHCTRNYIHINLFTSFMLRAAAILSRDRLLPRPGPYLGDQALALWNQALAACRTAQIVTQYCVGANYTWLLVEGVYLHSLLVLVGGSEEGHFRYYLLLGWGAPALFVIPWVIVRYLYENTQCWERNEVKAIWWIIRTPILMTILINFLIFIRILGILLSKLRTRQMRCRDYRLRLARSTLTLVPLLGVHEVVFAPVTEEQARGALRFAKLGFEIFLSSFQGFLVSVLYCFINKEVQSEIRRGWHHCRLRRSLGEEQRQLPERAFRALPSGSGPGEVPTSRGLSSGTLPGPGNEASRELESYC

[3] = molecular target: T3, human GLP-1 receptor (GLP-1R) (Homo sapiens, UniProt P43220); details: HEK293 cells expressing human GLP-1R, geometric mean, read-out: hGLP1R cAMP Rel EC50 nM (SEM, n)
T3 construct: expressed in transfected cells; host or cells: HEK293
T3 sequence (P43220 24-463): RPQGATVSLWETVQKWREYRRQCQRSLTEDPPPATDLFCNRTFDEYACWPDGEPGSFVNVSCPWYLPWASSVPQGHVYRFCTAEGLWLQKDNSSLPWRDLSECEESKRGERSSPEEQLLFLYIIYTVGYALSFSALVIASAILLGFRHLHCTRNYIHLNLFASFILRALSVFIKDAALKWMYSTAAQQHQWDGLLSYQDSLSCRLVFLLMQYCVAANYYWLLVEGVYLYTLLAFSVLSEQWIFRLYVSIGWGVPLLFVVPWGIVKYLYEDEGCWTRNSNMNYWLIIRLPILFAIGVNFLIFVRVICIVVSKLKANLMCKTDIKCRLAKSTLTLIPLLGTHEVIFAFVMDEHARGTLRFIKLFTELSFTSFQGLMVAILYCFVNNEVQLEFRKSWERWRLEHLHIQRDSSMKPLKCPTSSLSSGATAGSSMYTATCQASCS

T1 sequence (P47871 26-477): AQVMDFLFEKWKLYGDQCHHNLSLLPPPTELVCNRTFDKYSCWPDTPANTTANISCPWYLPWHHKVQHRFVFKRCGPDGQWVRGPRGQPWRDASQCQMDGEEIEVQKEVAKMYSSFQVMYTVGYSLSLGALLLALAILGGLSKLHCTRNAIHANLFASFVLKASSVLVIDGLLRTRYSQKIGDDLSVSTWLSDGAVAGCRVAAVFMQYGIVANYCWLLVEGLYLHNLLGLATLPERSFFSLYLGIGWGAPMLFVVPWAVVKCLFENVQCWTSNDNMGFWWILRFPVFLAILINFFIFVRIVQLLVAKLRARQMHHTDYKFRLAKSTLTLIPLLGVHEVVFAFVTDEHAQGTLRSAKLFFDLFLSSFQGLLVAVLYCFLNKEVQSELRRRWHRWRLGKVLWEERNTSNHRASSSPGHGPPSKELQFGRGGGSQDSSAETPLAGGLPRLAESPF

Row | Compound | EC50 [1] [nM] | EC50 [2] [nM] | EC50 [3] [nM]
1 | CC[C@H](C)[C@H](NC(=O)[C@H](CO)NC(=O)[C@H](Cc1ccc(O)cc1)NC(=O)[C@H](CC(=O)O)NC(=O)[C@H](CO)NC(=O)[C@@H](NC(=O)[C@](C)(Cc1ccccc1)NC(=O)[C@@H](NC(=O)CNC(=O)[C@H](CCC(=O)O)NC(=O)C(C)(C)NC(=O)[C@@H](N)Cc1ccc(O)cc1)[C@@H](C)O)[C@@H](C)CC)C(=O)N[C@@](C)(CC(C)C)C(=O)N[C@@H](CC(C)C)C(=O)N[C@@H](CC(=O)O)C(=O)N[C@@H](CCCCN)C(=O)N[C@@H](CCCCNC(=O)COCCOCCNC(=O)COCCOCCNC(=O)CC[C@H](NC(=O)CCCCCCCCCCCCCCCCCCC(=O)O)C(=O)O)C(=O)N[C@@H](Cc1c[nH]cn1)C(=O)N[C@@H](CCC(N)=O)C(=O)NC(C)(C)C(=O)N[C@@H](CCC(=O)O)C(=O)N[C@@H](Cc1ccccc1)C(=O)N[C@H](C(=O)N[C@@H](CCC(=O)O)C(=O)N[C@@H](Cc1ccncc1)C(=O)N[C@@H](CC(C)C)C(=O)N[C@@H](CC(C)C)C(=O)N[C@@H](C)C(=O)N[C@@H](CCC(N)=O)C(=O)NCC(=O)N1CCC[C@H]1C(=O)N[C@@H](CO)C(=O)N[C@@H](CO)C(=O)NCC(=O)N[C@@H](C)C(=O)N1CCC[C@H]1C(=O)N1CCC[C@H]1C(=O)N1CCC[C@H]1C(=O)N[C@@H](CO)C(N)=O)C(C)C [Example 60] (H-Y[Aib]EGT[αMeF]ISDYSI[αMeL]LDKK([AEEA-AEEA-γGlu-C20 diacid])HQ[Aib]EFVE[4Pal]LLAQGPSSGAPPPS-NH2) | > 5000 | 0.0369 | 71
2 | CC[C@H](C)[C@H](NC(=O)[C@H](Cc1ccccc1)NC(=O)[C@@H](NC(=O)CNC(=O)[C@H](CCC(=O)O)NC(=O)C(C)(C)NC(=O)[C@@H](N)Cc1ccc(O)cc1)[C@@H](C)O)C(=O)N[C@@H](CO)C(=O)N[C@@H](CC(=O)O)C(=O)N[C@@H](Cc1ccc(O)cc1)C(=O)N[C@@H](CO)C(=O)N[C@H](C(=O)N[C@@](C)(CC(C)C)C(=O)N[C@@H](CC(C)C)C(=O)N[C@@H](CC(=O)O)C(=O)N[C@@H](CCCCN)C(=O)N[C@@H](CCCCNC(=O)COCCOCCNC(=O)COCCOCCNC(=O)CC[C@H](NC(=O)CCCCCCCCCCCCCCCCCCC(=O)O)C(=O)O)C(=O)N[C@@H](Cc1c[nH]cn1)C(=O)N[C@@H](CCC(N)=O)C(=O)NC(C)(C)C(=O)N[C@@H](CC(=O)O)C(=O)N[C@@H](Cc1ccccc1)C(=O)N[C@H](C(=O)N[C@@H](CCC(=O)O)C(=O)N[C@@H](Cc1c[nH]c2ccccc12)C(=O)N[C@@H](CC(C)C)C(=O)N[C@@H](CC(C)C)C(=O)N[C@@H](C)C(=O)NCC(=O)NCC(=O)N1CCC[C@H]1C(=O)N[C@@H](CO)C(=O)N[C@@H](CO)C(=O)NCC(=O)N[C@@H](C)C(=O)N1CCC[C@H]1C(=O)N1CCC[C@H]1C(=O)N1CCC[C@H]1C(=O)N[C@@H](CO)C(N)=O)C(C)C)[C@@H](C)CC [Example 54] (H-Y[Aib]EGTFISDYSI[αMeL]LDKK([AEEA-AEEA-γGlu-C20 diacid])HQ[Aib]DFVEWLLAGGPSSGAPPPS-NH2) | > 5000 | 0.054 | > 5000
3 | CC[C@H](C)[C@H](NC(=O)[C@H](CC(C)C)NC(=O)[C@@H](NC(=O)CNC(=O)[C@H](CCC(=O)O)NC(=O)C(C)(C)NC(=O)[C@@H](N)Cc1ccc(O)cc1)[C@@H](C)O)C(=O)N[C@@H](CO)C(=O)N[C@@H](CC(=O)O)C(=O)N[C@@H](Cc1ccc(O)cc1)C(=O)N[C@@H](CO)C(=O)N[C@H](C(=O)N[C@@](C)(CC(C)C)C(=O)N[C@@H](CC(C)C)C(=O)N[C@@H](CC(=O)O)C(=O)N[C@@H](CCCCN)C(=O)N[C@@H](CCCCNC(=O)COCCOCCNC(=O)COCCOCCNC(=O)CC[C@H](NC(=O)CCCCCCCCCCCCCCCCCCC(=O)O)C(=O)O)C(=O)N[C@@H](Cc1c[nH]cn1)C(=O)N[C@@H](CCC(N)=O)C(=O)NC(C)(C)C(=O)N[C@@H](CCC(=O)O)C(=O)N[C@@H](Cc1ccccc1)C(=O)N[C@H](C(=O)N[C@@H](CCC(=O)O)C(=O)N[C@@H](Cc1ccc(O)cc1)C(=O)N[C@@H](CC(C)C)C(=O)N[C@@H](CC(C)C)C(=O)N[C@@H](CCC(=O)O)C(=O)N[C@H](C(=O)NCC(=O)N1CCC[C@H]1C(=O)N[C@@H](CO)C(=O)N[C@@H](CO)C(=O)NCC(=O)N[C@@H](C)C(=O)N1CCC[C@H]1C(=O)N1CCC[C@H]1C(=O)N1CCC[C@H]1C(=O)N[C@@H](CO)C(N)=O)[C@@H](C)O)C(C)C)[C@@H](C)CC [Example 72] (H-Y[Aib]EGTLISDYSI[αMeL]LDKK([AEEA-AEEA-γGlu-C20 diacid])HQ[Aib]EFVEYLLETGPSSGAPPPS-NH2) | > 5000 | 0.0182 | > 5000
4 | CC[C@H](C)[C@H](NC(=O)[C@H](CO)NC(=O)[C@H](Cc1ccc(O)cc1)NC(=O)[C@H](CC(=O)O)NC(=O)[C@H](CO)NC(=O)[C@@H](NC(=O)[C@](C)(Cc1ccccc1)NC(=O)[C@@H](NC(=O)CNC(=O)[C@H](CCC(=O)O)NC(=O)C(C)(C)NC(=O)[C@@H](N)Cc1ccc(O)cc1)[C@@H](C)O)[C@@H](C)CC)C(=O)N[C@@H](C)C(=O)N[C@@H](CC(C)C)C(=O)N[C@@H](CC(=O)O)C(=O)N[C@@H](CCCCN)C(=O)N[C@@H](CCCCNC(=O)COCCOCCNC(=O)COCCOCCNC(=O)CC[C@H](NC(=O)CCCCCCCCCCCCCCCCCCC(=O)O)C(=O)O)C(=O)N[C@@H](Cc1c[nH]cn1)C(=O)N[C@@H](CCC(N)=O)C(=O)NC(C)(C)C(=O)N[C@@H](CC(=O)O)C(=O)N[C@@H](Cc1ccccc1)C(=O)N[C@H](C(=O)N[C@@H](CCC(=O)O)C(=O)N[C@@H](Cc1ccncc1)C(=O)N[C@@H](CC(C)C)C(=O)N[C@@H](CC(C)C)C(=O)N[C@@H](CCC(=O)O)C(=O)N[C@@H](C)C(=O)NCC(=O)N1CCC[C@H]1C(=O)N[C@@H](CO)C(=O)N[C@@H](CO)C(=O)NCC(=O)N[C@@H](C)C(=O)N1CCC[C@H]1C(=O)N1CCC[C@H]1C(=O)N1CCC[C@H]1C(=O)N[C@@H](CO)C(N)=O)C(C)C [Example 43] (H-Y[Aib]EGT[αMeF]ISDYSIALDKK([AEEA-AEEA-γGlu-C20 diacid])HQ[Aib]DFVE[4Pal]LLEAGPSSGAPPPS-NH2) | > 5000 | 0.0154 | 1020
5 | CC[C@H](C)[C@H](NC(=O)[C@H](Cc1ccccc1)NC(=O)[C@@H](NC(=O)CNC(=O)[C@H](CCC(=O)O)NC(=O)C(C)(C)NC(=O)[C@@H](N)Cc1ccc(O)cc1)[C@@H](C)O)C(=O)N[C@@H](CO)C(=O)N[C@@H](CC(=O)O)C(=O)N[C@@H](Cc1ccc(O)cc1)C(=O)N[C@@H](CO)C(=O)N[C@H](C(=O)N[C@@](C)(CC(C)C)C(=O)N[C@@H](CC(C)C)C(=O)N[C@@H](CC(=O)O)C(=O)N[C@@H](CCCCN)C(=O)N[C@@H](CCCCNC(=O)COCCOCCNC(=O)COCCOCCNC(=O)CC[C@H](NC(=O)CCCCCCCCCCCCCCCCCCC(=O)O)C(=O)O)C(=O)N[C@@H](Cc1c[nH]cn1)C(=O)N[C@@H](CCC(N)=O)C(=O)NC(C)(C)C(=O)N[C@@H](CC(=O)O)C(=O)N[C@@](C)(Cc1ccccc1)C(=O)N[C@H](C(=O)N[C@@H](CCC(=O)O)C(=O)N[C@@H](Cc1ccncc1)C(=O)N[C@@H](CC(C)C)C(=O)N[C@@H](CC(C)C)C(=O)N[C@@H](C)C(=O)NCC(=O)NCC(=O)N1CCC[C@H]1C(=O)N[C@@H](CO)C(=O)N[C@@H](CO)C(=O)NCC(=O)N[C@@H](C)C(=O)N1CCC[C@H]1C(=O)N1CCC[C@H]1C(=O)N1CCC[C@H]1C(=O)N[C@@H](CO)C(N)=O)C(C)C)[C@@H](C)CC [Example 56] | > 5000 | 0.0169 | > 5000
6 | CC[C@H](C)[C@H](NC(=O)[C@H](CO)NC(=O)[C@H](Cc1ccc(O)cc1)NC(=O)[C@H](CC(=O)O)NC(=O)[C@H](CO)NC(=O)[C@@H](NC(=O)[C@H](CC(C)C)NC(=O)[C@@H](NC(=O)CNC(=O)[C@H](CCC(=O)O)NC(=O)[C@@H](C)NC(=O)[C@@H](N)Cc1ccc(O)cc1)[C@@H](C)O)[C@@H](C)CC)C(=O)N[C@@H](CC(C)C)C(=O)N[C@@H](CC(C)C)C(=O)N[C@@H](CC(=O)O)C(=O)N[C@@H](CCCCN)C(=O)N[C@@H](CCCCNC(=O)COCCOCCNC(=O)COCCOCCNC(=O)CC[C@H](NC(=O)CCCCCCCCCCCCCCCCC(=O)O)C(=O)O)C(=O)N[C@@H](C)C(=O)N[C@@H](CCC(N)=O)C(=O)NC(C)(C)C(=O)N[C@@H](CC(=O)O)C(=O)N[C@@H](Cc1ccccc1)C(=O)N[C@H](C(=O)N[C@@H](CC(N)=O)C(=O)N[C@@H](Cc1c[nH]c2ccccc12)C(=O)N[C@@H](CC(C)C)C(=O)N[C@@H](CC(C)C)C(=O)N[C@@H](C)C(=O)N[C@@H](CCC(N)=O)C(=O)NCC(=O)N1CCC[C@H]1C(=O)N[C@@H](CO)C(=O)N[C@@H](CO)C(=O)NCC(=O)N[C@@H](C)C(=O)N1CCC[C@H]1C(=O)N1CCC[C@H]1C(=O)N1CCC[C@H]1C(=O)N[C@@H](CO)C(N)=O)C(C)C [Example 32] (H-Y[dA]EGTLISDYSILLDKK([AEEA-AEEA-γGlu-C18 diacid])AQ[Aib]DFVNWLLAQGPSSGAPPPS-NH2) | > 5000 | 0.00469 | > 5000
